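In this assay, cells in 96-well plates receive the compound at five concentrations for 48 hours. Endpoints are linearly interpolated between the surrounding concentrations. TGI: concentration producing complete growth inhibition.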
How the values were obtained:
Assay in all cases: NCI tumour cell line growth inhibition, 48 h
786-0 renal = test system: 786-0 renal
A498 renal = test system: A498 renal
A549 NSCLC = test system: A549 NSCLC
ACHN renal = test system: ACHN renal
BT-549 breast = test system: BT-549 breast
CAKI-1 renal = test system: CAKI-1 renal
CCRF-CEM leukemia = test system: CCRF-CEM leukemia
COLO 205 colon = test system: COLO 205 colon
DLD-1 colon = test system: DLD-1 colon
DMS 273 small cell lung = test system: DMS 273 small cell lung
DU-145 prostate = test system: DU-145 prostate
EKVX NSCLC = test system: EKVX NSCLC
HCC-2998 colon = test system: HCC-2998 colon
HCT-116 colon = test system: HCT-116 colon
HCT-15 colon = test system: HCT-15 colon
HL-60(TB) leukemia = test system: HL-60(TB) leukemia
HOP-18 NSCLC = test system: HOP-18 NSCLC
HOP-62 NSCLC = test system: HOP-62 NSCLC
HOP-92 NSCLC = test system: HOP-92 NSCLC
HS 578T breast = test system: HS 578T breast
HT29 colon = test system: HT29 colon
IGROV1 ovarian = test system: IGROV1 ovarian
K-562 leukemia = test system: K-562 leukemia
KM12 colon = test system: KM12 colon
KM20L2 colon = test system: KM20L2 colon
LOX IMVI melanoma = test system: LOX IMVI melanoma
M14 melanoma = test system: M14 melanoma
M19-MEL melanoma = test system: M19-MEL melanoma
MALME-3M melanoma = test system: MALME-3M melanoma
MCF7 breast = test system: MCF7 breast
MDA-MB-231 breast = test system: MDA-MB-231 breast
MDA-MB-435 = test system: MDA-MB-435
MDA-N = test system: MDA-N
MOLT-4 leukemia = test system: MOLT-4 leukemia
NCI-H226 lung = test system: NCI-H226 lung
NCI-H23 lung = test system: NCI-H23 lung
NCI-H460 lung = test system: NCI-H460 lung
NCI-H522 lung = test system: NCI-H522 lung
NCI/ADR-RES ovarian = test system: NCI/ADR-RES ovarian
OVCAR-3 ovarian = test system: OVCAR-3 ovarian
OVCAR-4 ovarian = test system: OVCAR-4 ovarian
OVCAR-5 ovarian = test system: OVCAR-5 ovarian
OVCAR-8 ovarian = test system: OVCAR-8 ovarian
P388 leukemia = test system: P388 leukemia
P388/ADR leukemia = test system: P388/ADR leukemia
PC-3 prostate = test system: PC-3 prostate
RPMI-8226 leukemia = test system: RPMI-8226 leukemia
RXF 393 renal = test system: RXF 393 renal
SF-268 CNS = test system: SF-268 CNS
SF-295 CNS = test system: SF-295 CNS
SF-539 CNS = test system: SF-539 CNS
SK-MEL-2 melanoma = test system: SK-MEL-2 melanoma
SK-MEL-28 melanoma = test system: SK-MEL-28 melanoma
SK-MEL-5 melanoma = test system: SK-MEL-5 melanoma
SK-OV-3 ovarian = test system: SK-OV-3 ovarian
SN12C renal = test system: SN12C renal
SN12K1 renal = test system: SN12K1 renal
SNB-19 CNS = test system: SNB-19 CNS
SNB-75 CNS = test system: SNB-75 CNS
SNB-78 CNS = test system: SNB-78 CNS
SR leukemia = test system: SR leukemia
SW-620 colon = test system: SW-620 colon
T-47D breast = test system: T-47D breast
TK-10 renal = test system: TK-10 renal
U251 CNS = test system: U251 CNS
UACC-257 melanoma = test system: UACC-257 melanoma
UACC-62 melanoma = test system: UACC-62 melanoma
UO-31 renal = test system: UO-31 renal
DMS 114 small cell lung = test system: DMS 114 small cell lung
XF 498 CNS = test system: XF 498 CNS
LXFL 529 NSCLC = test system: LXFL 529 NSCLC
RXF-631 renal = test system: RXF-631 renal

Measured: TGI

CC(C)[C@](O)(C(=O)OCC1=CC[N+]2([O-])CC[C@@H](O)[C@@H]12)[C@H](C)O (some centres not stated)
> 9520 µM: CAKI-1 renal
> 3980 µM: HOP-62 NSCLC
9920 µM: UACC-62 melanoma
9860 µM: HL-60(TB) leukemia
> 6000 µM: NCI-H23 lung
> 9540 µM: NCI-H460 lung
> 7940 µM: OVCAR-8 ovarian | RXF 393 renal
not listed: DMS 114 small cell lung | XF 498 CNS | LXFL 529 NSCLC | RXF-631 renal
> 10000 µM: all other assays above

Nc1cc(S(=O)(=O)O)cc2cc(S(=O)(=O)O)c(N=Nc3ccc(-c4ccc(N=Nc5c(S(=O)(=O)O)cc6cc(S(=O)(=O)O)cc(N)c6c5O)cc4)cc3)c(O)c12
not listed: 786-0 renal | ACHN renal | BT-549 breast | CAKI-1 renal | DU-145 prostate | HS 578T breast | M14 melanoma | MDA-MB-231 breast | MDA-MB-435 | MDA-N | P388/ADR leukemia | PC-3 prostate | SR leukemia | T-47D breast | TK-10 renal | UACC-62 melanoma | LXFL 529 NSCLC | RXF-631 renal
> 100 µM: all other assays above

CCOC(=O)C12CCSC1C1(C#N)C(C#N)=CC2(N=P(c2ccccc2)(c2ccccc2)c2ccccc2)n2c(=O)n(-c3ccccc3)c(=O)n21 (configuration not stated)
55.4 µM: SK-MEL-5 melanoma
88.1 µM: MOLT-4 leukemia
78.3 µM: XF 498 CNS
73.4 µM: RPMI-8226 leukemia
60.9 µM: HOP-92 NSCLC
87.2 µM: NCI-H522 lung
73.3 µM: SK-MEL-28 melanoma
77.9 µM: UACC-62 melanoma
89.8 µM: OVCAR-3 ovarian
94.3 µM: UACC-257 melanoma
79.8 µM: OVCAR-4 ovarian
77.2 µM: UO-31 renal
96.6 µM: DMS 114 small cell lung
98.5 µM: M19-MEL melanoma
71.5 µM: HL-60(TB) leukemia
not listed: BT-549 breast | DMS 273 small cell lung | DU-145 prostate | HOP-18 NSCLC | HS 578T breast | MCF7 breast | MDA-MB-231 breast | MDA-MB-435 | MDA-N | NCI/ADR-RES ovarian | P388 leukemia | P388/ADR leukemia | PC-3 prostate | SK-OV-3 ovarian | SN12K1 renal | SR leukemia | T-47D breast
> 100 µM: all other assays above
